From ChEMBL document CHEMBL3044836, “Synthesis, antimicrobial and cytotoxic activities of novel 4-trifluoromethyl-(1,2,3)-thiadiazolo-5-carboxylic acid hydrazide Schiffs bases” (Med Chem Res, 2013) come the findings set out here.

≈ marks a conversion by molar mass, not a printed value. Where only a bound is given, the exact number is not on record here.

One may read the MIC as the least concentration at which growth counts as inhibited.

What all share (assay type): functional
Assay [1] deals with Saccharomyces cerevisiae. In words: Antifungal activity against Saccharomyces cerevisiae MTCC 36 assessed as growth inhibition at 100 ug/ml after 48 hr by agar cup diffusion method. The conditions noted are these: MTCC 36, 48 h, read-out: DIZ.
Another assay concerns Pseudomonas aeruginosa. In words: Antibacterial activity against Pseudomonas aeruginosa MTCC 741 assessed as growth inhibition by broth dilution method. A general note: Dilution methods test growth across graded concentrations, often in twofold steps.
The test system of assay [2] is Candida albicans. In words: Antifungal activity against Candida albicans MTCC 227 assessed as growth inhibition at 100 ug/ml after 48 hr by agar cup diffusion method. The conditions noted are these: MTCC 227, 48 h, read-out: DIZ.
In assay [3] the test system is Diutina rugosa. In words: Antifungal activity against Candida rugosa NCIM 3462 assessed as growth inhibition at 100 ug/ml after 48 hr by agar cup diffusion method. The conditions noted are these: NCIM 3462, 48 h, read-out: DIZ.
A further assay concerns Escherichia coli. Nature of the assay: Antibacterial activity against Escherichia coli MTCC 443 assessed as growth inhibition by broth dilution method.
Assay [4] has as its system Diutina rugosa. In words: Antifungal activity against Candida rugosa NCIM 3462 assessed as growth inhibition at 150 ug/ml after 48 hr by agar cup diffusion method. The settings on record: NCIM 3462, 48 h, read-out: DIZ.
The test system of assay [5] is Staphylococcus epidermidis. In words: Antibacterial activity against Staphylococcus epidermidis MTCC 435 assessed as growth inhibition by broth dilution method.
The subject of assay [6] is Aspergillus niger. In words: Antifungal activity against Aspergillus niger MTCC 1344 assessed as growth inhibition at 100 ug/ml after 48 hr by agar cup diffusion method. The conditions noted are these: MTCC 1344, 48 h, read-out: DIZ.
Assay [7] has as its system Candida albicans. Nature of the assay: Antifungal activity against Candida albicans MTCC 227 assessed as growth inhibition at 150 ug/ml after 48 hr by agar cup diffusion method. The conditions noted are these: MTCC 227, 48 h, read-out: DIZ.
The next assay has as its system Bacillus subtilis. Nature of the assay: Antibacterial activity against Bacillus subtilis MTCC 441 assessed as growth inhibition by broth dilution method.
Assay [8] has as its system Aspergillus niger. In words: Antifungal activity against Aspergillus niger MTCC 1344 assessed as growth inhibition at 150 ug/ml after 48 hr by agar cup diffusion method. The settings on record: MTCC 1344, 48 h, read-out: DIZ.
The next assay concerns Klebsiella pneumoniae. In words: Antibacterial activity against Klebsiella pneumoniae assessed as growth inhibition by broth dilution method.
In assay [9] the test system is Saccharomyces cerevisiae. Nature of the assay: Antifungal activity against Saccharomyces cerevisiae MTCC 36 assessed as growth inhibition at 150 ug/ml after 48 hr by agar cup diffusion method. The settings on record: MTCC 36, 48 h, read-out: DIZ.
Another assay concerns Staphylococcus aureus. Nature of the assay: Antibacterial activity against Staphylococcus aureus MTCC 96 assessed as growth inhibition by broth dilution method. The conditions noted are these: read-out: MIC.

Consider `O=C(N/N=C/c1ccc(Cl)cc1)c1snnc1C(F)(F)F`, for which the zone of inhibition at 100 µg/mL in the assay on Saccharomyces cerevisiae [1], in the assay on Candida albicans [2], in the assay on Diutina rugosa [3] and with Aspergillus niger [6] was 0 mm throughout. In addition, the MIC was 150 µg/mL (≈ 448 µM) in the assay with Pseudomonas aeruginosa (read-out: MIC); over 150 µg/mL in the assay with Escherichia coli; over 150 µg/mL in [5]; over 150 µg/mL with Bacillus subtilis; 150 µg/mL (≈ 448 µM) with Klebsiella pneumoniae (read-out: MIC); 150 µg/mL (≈ 448 µM) with Staphylococcus aureus. The zone of inhibition at 150 µg/mL in the assay with Diutina rugosa [4], with Candida albicans [7], in the assay with Aspergillus niger [8] and in the assay with Saccharomyces cerevisiae [9] was 0 mm each time.
Turning to `O=C(N/N=C/c1ccc(Br)cc1)c1snnc1C(F)(F)F`, the zone of inhibition at 100 µg/mL in the assay with Saccharomyces cerevisiae [1], with Candida albicans [2], in the assay with Diutina rugosa [3] and with Aspergillus niger [6] was 0 mm each time. The MIC in the assay with Pseudomonas aeruginosa is over 150 µg/mL; in the assay on Escherichia coli, over 150 µg/mL; in [5] (read-out: MIC), 150 µg/mL (≈ 396 µM); in the assay with Bacillus subtilis, over 150 µg/mL; in the assay with Klebsiella pneumoniae (read-out: MIC), 150 µg/mL (≈ 396 µM); in the assay with Staphylococcus aureus, 150 µg/mL (≈ 396 µM). Besides, the zone of inhibition at 150 µg/mL with Diutina rugosa [4], with Candida albicans [7], in the assay with Aspergillus niger [8] and in the assay with Saccharomyces cerevisiae [9] was 0 mm each time.
Regarding `O=C(N/N=C/c1ccc([N+](=O)[O-])cc1)c1snnc1C(F)(F)F`, the zone of inhibition at 100 µg/mL in the assay with Saccharomyces cerevisiae [1], in the assay with Candida albicans [2], in the assay on Diutina rugosa [3] and in the assay with Aspergillus niger [6] was 0 mm each time. Moreover, the MIC (with Pseudomonas aeruginosa (read-out: MIC); in the assay with Escherichia coli (read-out: MIC); in [5] (read-out: MIC); in the assay on Bacillus subtilis (read-out: MIC); in the assay with Klebsiella pneumoniae (read-out: MIC); in the assay on Staphylococcus aureus) was 150 µg/mL (≈ 434 µM) in each case. Also, the zone of inhibition at 150 µg/mL in the assay with Diutina rugosa [4], in the assay on Candida albicans [7], in the assay on Aspergillus niger [8] and in the assay on Saccharomyces cerevisiae [9] was 0 mm throughout.
As to `CN(C)c1ccc(/C=N/NC(=O)c2snnc2C(F)(F)F)cc1`, the zone of inhibition at 100 µg/mL with Saccharomyces cerevisiae [1], with Candida albicans [2], with Diutina rugosa [3] and in the assay on Aspergillus niger [6] was 0 mm in each case. The MIC in the assay with Pseudomonas aeruginosa (read-out: MIC) is 150 µg/mL (≈ 437 µM); in the assay with Escherichia coli, over 150 µg/mL; in [5] (read-out: MIC), 150 µg/mL (≈ 437 µM); with Bacillus subtilis (read-out: MIC), 150 µg/mL (≈ 437 µM); in the assay on Klebsiella pneumoniae it was over 150 µg/mL; in the assay on Staphylococcus aureus it was 150 µg/mL (≈ 437 µM). Further, the zone of inhibition at 150 µg/mL in the assay on Diutina rugosa [4], with Candida albicans [7], in the assay with Aspergillus niger [8] and with Saccharomyces cerevisiae [9] was 0 mm each time.
In the case of `O=C(N/N=C/c1ccc(O)cc1)c1snnc1C(F)(F)F`, the zone of inhibition at 100 µg/mL in the assay on Saccharomyces cerevisiae [1], with Candida albicans [2], in the assay with Diutina rugosa [3] and in the assay with Aspergillus niger [6] was 0 mm in each case. In addition, the minimum inhibitory concentration (MIC) was over 150 µg/mL with Pseudomonas aeruginosa; 150 µg/mL (≈ 474 µM) in the assay with Escherichia coli (read-out: MIC); 150 µg/mL (≈ 474 µM) in assay [5] (read-out: MIC); 150 µg/mL (≈ 474 µM) in the assay on Bacillus subtilis (read-out: MIC); over 150 µg/mL in the assay on Klebsiella pneumoniae; 150 µg/mL (≈ 474 µM) in the assay with Staphylococcus aureus. For the same molecule, the zone of inhibition at 150 µg/mL with Diutina rugosa [4], in the assay on Candida albicans [7], with Aspergillus niger [8] and in the assay with Saccharomyces cerevisiae [9] was 0 mm in each case.
For `CC1(C)S[C@@H]2[C@H](NC(=O)Cc3ccccc3)C(=O)N2[C@H]1C(=O)O` [PENICILLIN G], the MIC in the assay with Pseudomonas aeruginosa (read-out: MIC) was 12.5 µg/mL (≈ 37.4 µM); in the assay on Escherichia coli (read-out: MIC), 12.5 µg/mL (≈ 37.4 µM); in [5] (read-out: MIC), 3.12 µg/mL (≈ 9.35 µM); with Bacillus subtilis (read-out: MIC) it was 1.56 µg/mL (≈ 4.67 µM); in the assay on Klebsiella pneumoniae (read-out: MIC), 6.25 µg/mL (≈ 18.7 µM); in the assay on Staphylococcus aureus it was 1.56 µg/mL (≈ 4.67 µM).
With `CN[C@@H]1[C@H](O[C@H]2[C@H](O[C@H]3[C@H](O)[C@@H](O)[C@H](N=C(N)N)[C@@H](O)[C@@H]3N=C(N)N)O[C@@H](C)[C@]2(O)C=O)O[C@@H](CO)[C@H](O)[C@H]1O` [STREPTOMYCIN], the MIC was found to be 1.56 µg/mL (≈ 2.69 µM) with Pseudomonas aeruginosa (read-out: MIC); 6.25 µg/mL (≈ 10.7 µM) in the assay on Escherichia coli (read-out: MIC); 3.12 µg/mL (≈ 5.37 µM) in assay [5] (read-out: MIC); 6.25 µg/mL (≈ 10.7 µM) in the assay with Bacillus subtilis (read-out: MIC); 3.12 µg/mL (≈ 5.37 µM) in the assay on Klebsiella pneumoniae (read-out: MIC); 6.25 µg/mL (≈ 10.7 µM) in the assay on Staphylococcus aureus.
